Results from patent US12599136B2, “Substituted isophthalic acid diamides and their use as herbicides” (Bayer Aktiengesellschaft, priority 2020, dated 2026).

Experiments:
Assay type in all cases: in vivo
[1] = test system: Abutilon theophrasti; test: Pre-emergence herbicidal action against ABUTH; conditions: for Pre-emergence action against ABUTH: visual score after 3 weeks vs untreated controls; for Herbicidal action against ABUTH: comparative experiment, pre-emergence
Procedure, shortened: (§1)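 Sandy loam pots, seeds covered with soil, then surface-treated with WP or EC formulations at 600–800 l/ha water plus 0.2% wetting agent. Greenhouse, 3 weeks. Percent damage vs untreated controls.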

[2] = test system: Alopecurus myosuroides; test: Pre-emergence herbicidal action against ALOMY; conditions: for Pre-emergence action against ALOMY: visual score after 3 weeks vs untreated controls; for Herbicidal action against ALOMY: comparative experiment, pre-emergence
Procedure, shortened: as §1

[3] = test system: Amaranthus retroflexus; test: Pre-emergence herbicidal action against AMARE; conditions: visual score after 3 weeks vs untreated controls
Procedure, shortened: as §1

[4] = test system: Avena fatua; test: Pre-emergence herbicidal action against AVEFA; conditions: for Pre-emergence action against AVEFA: visual score after 3 weeks vs untreated controls; for Herbicidal action against AVEFA: comparative experiment, pre-emergence
Procedure, shortened: as §1

[5] = test system: Echinochloa crus-galli; test: Pre-emergence herbicidal action against ECHCG; conditions: for Pre-emergence action against ECHCG: 80 g/ha, visual score after 3 weeks vs untreated controls; for Herbicidal action against ECHCG: comparative experiment, pre-emergence
Procedure, shortened: as §1

[6] = test system: Matricaria inodora; test: Pre-emergence herbicidal action against MATIN; conditions: visual score after 3 weeks vs untreated controls
Procedure, shortened: as §1

[7] = test system: Digitaria sanguinalis; test: Pre-emergence herbicidal action against DIGSA
Procedure, shortened: as §1

[8] = test system: Setaria viridis; test: Pre-emergence herbicidal action against SETVI; conditions: for Pre-emergence action against SETVI: 80 g/ha; for Herbicidal action against SETVI: comparative experiment
Procedure, shortened: as §1

[9] = test system: Viola tricolor; test: Pre-emergence herbicidal action against VIOTR
Procedure, shortened: as §1

[10] = test system: Alopecurus myosuroides; test: Post-emergence herbicidal action against ALOMY
Procedure, shortened: (§2)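 Herbicidal action is a visual percentage rating (0% = as untreated control, 100% = plants dead) made roughly 3 weeks after treatment. Plants were grown in sandy loam in the greenhouse and treated at the one-leaf stage, 2 to 3 weeks post-sowing. Treatment was a foliar spray of wettable-powder or emulsion-concentrate formulations at 600 to 800 l/ha water plus 0.2% wetting agent.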

[11] = test system: Amaranthus retroflexus; test: Post-emergence herbicidal action against AMARE; conditions: visual assessment about 3 weeks after treatment
Procedure, shortened: as §2

[12] = test system: Avena fatua; test: Post-emergence herbicidal action against AVEFA; conditions: 20 g/ha, visual assessment about 3 weeks after treatment
Procedure, shortened: as §2

[13] = test system: Matricaria inodora; test: Post-emergence herbicidal action against MATIN; conditions: for Post-emergence action against MATIN in %: visual assessment about 3 weeks after treatment
Procedure, shortened: as §2

[14] = test system: Digitaria sanguinalis; test: Post-emergence herbicidal action against DIGSA
Description: Seeds of monocotyledonous and dicotyledonous weed and crop plants are laid out in sandy loam soil in wood-fiber pots, covered with soil and cultivated in a greenhouse under good growth conditions. 2 to 3 weeks after sowing, the test plants are treated at the one-leaf stage. The compounds of the invention, formulated in the form of wettable powders (WP) or as emulsion concentrates (EC), are then sprayed onto the green parts of the plants in the form of an aqueous suspension or emulsion at a water application rate equivalent to 600 to 800 l/ha, with addition of 0.2% wetting agent. After the test plants have been left to stand in the greenhouse under optimal growth conditions for about 3 weeks, the action of the preparations is assessed visually in comparison to untreated controls (herbicidal action in percent (%): 100% activity=the plants have died, 0% activity=like control plants). […] The tables below illustrate, in an illustrative manner, the post-emergence herbicidal action of the compounds of the invention, the herbicidal activity being stated in percent.

[15] = test system: Setaria viridis; test: Post-emergence herbicidal action against SETVI; conditions: for Post-emergence action against SETVI in %: visual assessment about 3 weeks after treatment
Procedure, shortened: as §2

[16] = test system: Veronica persica; test: Post-emergence herbicidal action against VERPE; conditions: 20 g/ha, visual assessment about 3 weeks after treatment
Procedure, shortened: as §2

[17] = test system: Viola tricolor; test: Post-emergence herbicidal action against VIOTR
Procedure, shortened: as §2

[18] = test system: Lolium rigidum; test: Pre-emergence herbicidal action against LOLRI; conditions: 80 g/ha
Source text: Seeds of monocotyledonous and dicotyledonous weed plants and crop plants are laid out in sandy loam soil in wood-fiber pots and covered with soil. The compounds of the invention, formulated in the form of wettable powders (WP) or as emulsion concentrates (EC), are then applied to the surface of the covering soil in the form of an aqueous suspension or emulsion at a water application rate equivalent to 600 to 800 l/ha, with addition of 0.2% wetting agent. After the treatment, the pots are placed in a greenhouse and kept under good growth conditions for the trial plants. The damage to the test plants is scored visually after a test period of 3 weeks by comparison with untreated controls (herbicidal activity in percent (%): 100% activity=the plants have died, 0% activity=like control plants). […] The tables below illustrate, in an illustrative manner, the post-emergence herbicidal action of the compounds of the invention, the herbicidal activity being stated in percent.

[19] = test system: Polygonum convolvulus; test: Pre-emergence herbicidal action against POLCO; conditions: 80 g/ha
Procedure, shortened: as §1

[20] = test system: Veronica persica; test: Pre-emergence herbicidal action against VERPE; conditions: 80 g/ha
Procedure, shortened: as §1

[21] = test system: Abutilon theophrasti; test: Post-emergence herbicidal action against ABUTH
Procedure, shortened: as §2

[22] = test system: Echinochloa crus-galli; test: Post-emergence herbicidal action against ECHCG; conditions: visual assessment about 3 weeks after treatment
Procedure, shortened: as §2

[23] = test system: Pharbitis purpurea; test: Post-emergence herbicidal action against PHBPU; conditions: for Post-emergence action against PHBPU in %: visual assessment about 3 weeks after treatment
Procedure, shortened: as §2

[24] = comparative experiment, 5 g a.i./ha

CN(C(=O)c1c(C(F)(F)F)ccc(C(=O)Nc2nnnn2C)c1Cl)C1CC1 [Example 1-125]
100%: Pre-emergence action against ABUTH ([1]; 20 g/ha) | Pre-emergence action against ABUTH ([1]; 80 g/ha) | Pre-emergence action against ALOMY ([2]; 80 g/ha) | Pre-emergence action against AMARE ([3]; 20 g/ha) | Pre-emergence action against AMARE ([3]; 80 g/ha) | Pre-emergence action against MATIN ([6]; 80 g/ha) | Pre-emergence action against DIGSA ([7]; 20 g/ha) | Pre-emergence action against DIGSA ([7]; 80 g/ha) | Pre-emergence action against SETVI [8] | Pre-emergence action against VIOTR ([9]; 20 g/ha) | Pre-emergence action against VIOTR ([9]; 80 g/ha) | Post-emergence action against DIGSA in % ([14]; 20 g/ha)
90%: Pre-emergence action against ECHCG [5] | Post-emergence action against ALOMY ([10]; 20 g/ha) | Post-emergence action against AMARE in % ([11]; 20 g/ha) | Post-emergence action against VERPE in % [16]
80%: Pre-emergence action against AVEFA ([4]; 80 g/ha) | Post-emergence action against ALOMY ([10]; 5 g/ha) | Post-emergence action against AMARE in % ([11]; 5 g/ha) | Post-emergence action against AVEFA in % [12] | Post-emergence action against MATIN in % ([13]; 20 g/ha) | Post-emergence action against SETVI in % ([15]; 20 g/ha) | Post-emergence action against VIOTR in % ([17]; 20 g/ha)

CN(C)C(=O)c1c(C(F)F)ccc(C(=O)Nc2nnnn2C)c1Cl [Example 1-154]
50: Herbicidal action against AVEFA ([4]; 20 g a.i./ha)
80: Herbicidal action against ECHCG ([5]; 20 g a.i./ha) | Herbicidal action against MATIN [13, 24] | Herbicidal action against PHBPU [23, 24]
90: Herbicidal action against SETVI ([8]; 20 g a.i./ha) | Herbicidal action against ALOMY [10, 24]
100%: Pre-emergence action against ABUTH ([1]; 80 g/ha) | Pre-emergence action against ALOMY ([2]; 80 g/ha) | Pre-emergence action against AMARE ([3]; 80 g/ha) | Pre-emergence action against AVEFA ([4]; 80 g/ha) | Pre-emergence action against ECHCG [5] | Pre-emergence action against DIGSA ([7]; 20 g/ha) | Pre-emergence action against DIGSA ([7]; 80 g/ha) | Pre-emergence action against SETVI [8] | Pre-emergence action against VIOTR ([9]; 80 g/ha) | Post-emergence action against ABUTH ([21]; 5 g/ha) | Post-emergence action against ABUTH ([21]; 20 g/ha) | Post-emergence action against ALOMY ([10]; 20 g/ha) | Post-emergence action against AMARE in % ([11]; 20 g/ha) | Post-emergence action against SETVI in % ([15]; 5 g/ha) | Post-emergence action against SETVI in % ([15]; 20 g/ha) | Post-emergence action against VIOTR in % ([17]; 5 g/ha) | Post-emergence action against VIOTR in % ([17]; 20 g/ha)
100: Herbicidal action against ABUTH ([1]; 20 g a.i./ha) | Herbicidal action against ABUTH ([1]; 80 g a.i./ha) | Herbicidal action against ALOMY ([2]; 80 g a.i./ha) | Herbicidal action against AVEFA ([4]; 80 g a.i./ha) | Herbicidal action against ECHCG ([5]; 80 g a.i./ha) | Herbicidal action against SETVI ([8]; 80 g a.i./ha) | Herbicidal action against VIOTR ([9]; comparative experiment, 80 g a.i./ha) | Herbicidal action against ABUTH [21, 24] | Herbicidal action against SETVI [15, 24] | Herbicidal action against VIOTR [17, 24]
70: Herbicidal action against ALOMY ([2]; 20 g a.i./ha)
80%: Pre-emergence action against AVEFA ([4]; 20 g/ha) | Pre-emergence action against MATIN ([6]; 20 g/ha) | Pre-emergence action against POLCO [19] | Pre-emergence action against VERPE [20] | Post-emergence action against MATIN in % ([13]; 5 g/ha) | Post-emergence action against PHBPU in % ([23]; 5 g/ha)
90%: Pre-emergence action against ALOMY ([2]; 20 g/ha) | Pre-emergence action against AMARE ([3]; 20 g/ha) | Pre-emergence action against MATIN ([6]; 80 g/ha) | Pre-emergence action against LOLRI [18] | Post-emergence action against ALOMY ([10]; 5 g/ha) | Post-emergence action against AMARE in % ([11]; 5 g/ha) | Post-emergence action against ECHCG in % ([22]; 5 g/ha) | Post-emergence action against ECHCG in % ([22]; 20 g/ha) | Post-emergence action against MATIN in % ([13]; 20 g/ha) | Post-emergence action against PHBPU in % ([23]; 20 g/ha) | Post-emergence action against DIGSA in % ([14]; 5 g/ha) | Post-emergence action against DIGSA in % ([14]; 20 g/ha)

CCN(CC)C(=O)c1c(C(F)F)ccc(C(=O)Nc2nnnn2CC)c1Cl [Example 2-166]
80%: Pre-emergence action against AVEFA ([4]; 80 g/ha) | Pre-emergence action against MATIN ([6]; 20 g/ha) | Pre-emergence action against POLCO [19] | Post-emergence action against ABUTH ([21]; 5 g/ha) | Post-emergence action against AVEFA in % [12] | Post-emergence action against ECHCG in % ([22]; 20 g/ha) | Post-emergence action against MATIN in % ([13]; 5 g/ha) | Post-emergence action against MATIN in % ([13]; 20 g/ha) | Post-emergence action against PHBPU in % ([23]; 5 g/ha) | Post-emergence action against DIGSA in % ([14]; 5 g/ha) | Post-emergence action against VIOTR in % ([17]; 20 g/ha)
100%: Pre-emergence action against ABUTH ([1]; 20 g/ha) | Pre-emergence action against ABUTH ([1]; 80 g/ha) | Pre-emergence action against AMARE ([3]; 20 g/ha) | Pre-emergence action against AMARE ([3]; 80 g/ha) | Pre-emergence action against MATIN ([6]; 80 g/ha) | Pre-emergence action against SETVI [8] | Pre-emergence action against VERPE [20] | Pre-emergence action against VIOTR ([9]; 80 g/ha) | Post-emergence action against AMARE in % ([11]; 5 g/ha) | Post-emergence action against AMARE in % ([11]; 20 g/ha)
90%: Pre-emergence action against ALOMY ([2]; 80 g/ha) | Pre-emergence action against ECHCG [5] | Post-emergence action against ABUTH ([21]; 20 g/ha) | Post-emergence action against ALOMY ([10]; 20 g/ha) | Post-emergence action against PHBPU in % ([23]; 20 g/ha) | Post-emergence action against DIGSA in % ([14]; 20 g/ha) | Post-emergence action against SETVI in % ([15]; 5 g/ha) | Post-emergence action against SETVI in % ([15]; 20 g/ha)
